Measured values published in US20240261224A1, “FORMULATION OF A PAN-JAK INHIBITOR” (KINASET THERAPEUTICS, INC., priority 2022, published 2024).
Where two headings read alike, the source gives them in different places.

How the values were obtained:
[1] = Phase 1 Part 2 plasma pharmacokinetics (mild asthma); type: in vivo, human; details: for AUC0-12 hours Max / AUC0-12 hours Min / AUC0-24 hours Max / AUC0-24 hours Min / AUC0-last non-zero Max / AUC0-last non-zero Min / AUC0-∞ Max / AUC0-∞ Min / AUCover dosing interval Max / AUCover dosing interval Min / Cmax Max / Cmax Min / Ctrough Geometric mean / Ctrough Max / Ctrough Mean / Ctrough Min: Day 10; for AUC0-12h / AUC(0-t) / AUC(0-inf) / AUC / Cmax: human, plasma, inhaled
From the text: Day 10 pharmacokinetic parameters for Parts 2 and 3 of Phase I are summarized below in Table 28. Part 2 involved the administration of 4 different dose regimens, to subjects with mild asthma naïve to ICS therapy, over a 10-day period. Each separate cohort comprised 6 subjects receiving active treatment with 2 receiving matching placebo. Blood samples were collected to enable the measurement of Compound I concentrations in plasma. The resultant data was used to determine the PK parameters at Day 10 representing the Day on which the final dose was received.

[2] = Margin of safety study versus 13-wk NHP NOAEL; type: in vivo
From the text: Results from the margin of safety study of lactose/MgSt-based formulations of Compound I are shown below in Table 17.

[3] = 4.0 mg BID vs 13-week NHP study

Cn1c(=O)n([C@H]2CCCN(C(=O)CC#N)C2)c2nc(-c3cnn4ccccc34)ccc21 [Compound I, (S)-3-(3-(1-methyl-2-oxo-5-(pyrazolo[1,5-a]pyridine-3-yl)-1H-imidazo[4,5-b]pyridine-3(2H)-yl)piperidin-1-yl)-3-oxopropanenitrile]
AUC0-12 hours Max ([1]; 0.6 mg QD): 23,507 pg · h/ml
AUC0-12 hours Min ([1]; 0.6 mg QD): 7,596 pg · h/ml
AUC0-24 hours Max ([1]; 0.6 mg QD): 36,466 pg · h/ml
AUC0-24 hours Min ([1]; 0.6 mg QD): 8,579 pg · h/ml
AUC0-last non-zero Max ([1]; 0.6 mg QD): 47,928 pg · h/ml
AUC0-last non-zero Min ([1]; 0.6 mg QD): 8,579 pg · h/ml
AUC0-∞ Max ([1]; 0.6 mg QD): 52,842 pg · h/ml
AUC0-∞ Min ([1]; 0.6 mg QD): 8,783 pg · h/ml
AUCover dosing interval Max ([1]; 0.6 mg QD): 36,466 pg · h/ml
AUCover dosing interval Min ([1]; 0.6 mg QD): 8,579 pg · h/ml
Cmax Max ([1]; 0.6 mg QD): 2,750 pg/ml
Cmax Min ([1]; 0.6 mg QD): 1,020 pg/ml
Ctrough Geometric mean ([1]; 0.6 mg QD): 234 pg/mL
Ctrough Max ([1]; 0.6 mg QD): 913 pg/mL
Ctrough Mean ([1]; 0.6 mg QD): 362 pg/mL
Ctrough Min ([1]; 0.6 mg QD): 34 pg/mL
AUC0-12 hours Max ([1]; 2 mg QD): 88,203 pg · h/ml
AUC0-12 hours Min ([1]; 2 mg QD): 30,807 pg · h/ml
AUC0-24 hours Max ([1]; 2 mg QD): 125,837 pg · h/ml
AUC0-24 hours Min ([1]; 2 mg QD): 42,693 pg · h/ml
AUC0-last non-zero Max ([1]; 2 mg QD): 143,585 pg · h/ml
AUC0-last non-zero Min ([1]; 2 mg QD): 48,931 pg · h/ml
AUC0-∞ Max ([1]; 2 mg QD): 145,552 pg · h/ml
AUC0-∞ Min ([1]; 2 mg QD): 50,025 pg · h/ml
AUCover dosing interval Max ([1]; 2 mg QD): 125,837 pg · h/ml
AUCover dosing interval Min ([1]; 2 mg QD): 42,693 pg · h/ml
Cmax Max ([1]; 2 mg QD): 9,630 pg/ml
Cmax Min ([1]; 2 mg QD): 4,160 pg/ml
Ctrough Geometric mean ([1]; 2 mg QD): 929 pg/mL
Ctrough Max ([1]; 2 mg QD): 1,370 pg/ml
Ctrough Mean ([1]; 2 mg QD): 970 pg/mL
Ctrough Min ([1]; 2 mg QD): 536 pg/mL
AUC0-12 hours Max ([1]; 4 mg BID): 373,995 pg · h/ml
AUC0-12 hours Min ([1]; 4 mg BID): 39,111 pg · h/ml
AUC0-24 hours Max ([1]; 4 mg BID): 473,634 pg · h/ml
AUC0-24 hours Min ([1]; 4 mg BID): 43,350 pg · h/ml
AUC0-last non-zero Max ([1]; 4 mg BID): 586,513 pg · h/ml
AUC0-last non-zero Min ([1]; 4 mg BID): 43,356 pg · h/ml
AUC0-∞ Max ([1]; 4 mg BID): 587,424 pg · h/ml
AUC0-∞ Min ([1]; 4 mg BID): 44,654 pg · h/ml
AUCover dosing interval Max ([1]; 4 mg BID): 373,995 pg · h/ml
AUCover dosing interval Min ([1]; 4 mg BID): 39,111 pg · h/ml
Cmax Max ([1]; 4 mg BID): 47,800 pg/ml
Cmax Min ([1]; 4 mg BID): 7,750 pg/ml
Ctrough Geometric mean ([1]; 4 mg BID): 6,983 pg/ml
Ctrough Max ([1]; 4 mg BID): 15,600 pg/ml
Ctrough Mean ([1]; 4 mg BID): 10,001 pg/ml
Ctrough Min ([1]; 4 mg BID): 563 pg/mL
AUC0-12 hours Max ([1]; 8 mg BID): 830,085 pg · h/ml
AUC0-12 hours Min ([1]; 8 mg BID): 260,305 pg · h/ml
AUC0-24 hours Max ([1]; 8 mg BID): 1,140,247 pg · h/ml
AUC0-24 hours Min ([1]; 8 mg BID): 309,050 pg · h/ml
AUC0-last non-zero Max ([1]; 8 mg BID): 1,369,314 pg · h/ml
AUC0-last non-zero Min ([1]; 8 mg BID): 358,137 pg · h/ml
AUC0-∞ Max ([1]; 8 mg BID): 1,369,630 pg · h/ml
AUC0-∞ Min ([1]; 8 mg BID): 358,998 pg · h/ml
AUCover dosing interval Max ([1]; 8 mg BID): 830,085 pg · h/ml
AUCover dosing interval Min ([1]; 8 mg BID): 260,305 pg · h/ml
Cmax Max ([1]; 8 mg BID): 91,500 pg/ml
Cmax Min ([1]; 8 mg BID): 45,400 pg/ml
Ctrough Geometric mean ([1]; 8 mg BID): 17,666 pg/ml
Ctrough Max ([1]; 8 mg BID): 40,600 pg/ml
Ctrough Mean ([1]; 8 mg BID): 21,835 pg/ml
Ctrough Min ([1]; 8 mg BID): 6,090 pg/ml
AUC0-12h ([1]; 0.6 mg, 0.6 mg QD, Day 10, read-out: AUC0-12 hours Geometric mean): 14.9 ng·h/mL
AUC0-12h ([1]; 0.6 mg, 0.6 mg QD, Day 10, read-out: AUC0-12 hours Mean): 16.1 ng·h/mL
AUC(0-t) ([1]; 0.6 mg, 0.6 mg QD, Day 10, read-out: AUC0-24 hours Geometric mean): 20.3 ng·h/mL
AUC(0-t) ([1]; 0.6 mg, 0.6 mg QD, Day 10, read-out: AUC0-24 hours Mean): 22.5 ng·h/mL
AUC(0-t) ([1]; 0.6 mg, 0.6 mg QD, Day 10, read-out: AUC0-last non-zero Geometric mean): 23.4 ng·h/mL
AUC(0-t) ([1]; 0.6 mg, 0.6 mg QD, Day 10, read-out: AUC0-last non-zero Mean): 26.7 ng·h/mL
AUC(0-inf) ([1]; 0.6 mg, 0.6 mg QD, Day 10, read-out: AUC0-∞ Geometric mean): 24.3 ng·h/mL
AUC(0-inf) ([1]; 0.6 mg, 0.6 mg QD, Day 10, read-out: AUC0-∞ Mean): 28 ng·h/mL
AUC ([1]; 0.6 mg, 0.6 mg QD, Day 10, read-out: AUCover dosing interval Geometric mean): 20.3 ng·h/mL
AUC ([1]; 0.6 mg, 0.6 mg QD, Day 10, read-out: AUCover dosing interval Mean): 22.5 ng·h/mL
Cmax ([1]; 0.6 mg, 0.6 mg QD, Day 10, read-out: Cmax Geometric mean): 1.86 ng/mL
Cmax ([1]; 0.6 mg, 0.6 mg QD, Day 10, read-out: Cmax Mean): 1.97 ng/mL
AUC0-12h ([1]; 2 mg, 2 mg QD, Day 10, read-out: AUC0-12 hours Geometric mean): 51.9 ng·h/mL
AUC0-12h ([1]; 2 mg, 2 mg QD, Day 10, read-out: AUC0-12 hours Mean): 55.2 ng·h/mL
AUC(0-t) ([1]; 2 mg, 2 mg QD, Day 10, read-out: AUC0-24 hours Geometric mean): 71.9 ng·h/mL
AUC(0-t) ([1]; 2 mg, 2 mg QD, Day 10, read-out: AUC0-24 hours Mean): 76.4 ng·h/mL
AUC(0-t) ([1]; 2 mg, 2 mg QD, Day 10, read-out: AUC0-last non-zero Geometric mean): 82.2 ng·h/mL
AUC(0-t) ([1]; 2 mg, 2 mg QD, Day 10, read-out: AUC0-last non-zero Mean): 87.4 ng·h/mL
AUC(0-inf) ([1]; 2 mg, 2 mg QD, Day 10, read-out: AUC0-∞ Geometric mean): 83.9 ng·h/mL
AUC(0-inf) ([1]; 2 mg, 2 mg QD, Day 10, read-out: AUC0-∞ Mean): 89.2 ng·h/mL
AUC ([1]; 2 mg, 2 mg QD, Day 10, read-out: AUCover dosing interval Geometric mean): 71.9 ng·h/mL
AUC ([1]; 2 mg, 2 mg QD, Day 10, read-out: AUCover dosing interval Mean): 76.4 ng·h/mL
Cmax ([1]; 2 mg, 2 mg QD, Day 10, read-out: Cmax Geometric mean): 6.19 ng/mL
Cmax ([1]; 2 mg, 2 mg QD, Day 10, read-out: Cmax Mean): 6.46 ng/mL
AUC0-12h ([1]; 4 mg, 4 mg BID, Day 10, read-out: AUC0-12 hours Geometric mean): 194 ng·h/mL
AUC0-12h ([1]; 4 mg, 4 mg BID, Day 10, read-out: AUC0-12 hours Mean): 237 ng·h/mL
AUC(0-t) ([1]; 4 mg, 4 mg BID, Day 10, read-out: AUC0-24 hours Geometric mean): 241 ng·h/mL
AUC(0-t) ([1]; 4 mg, 4 mg BID, Day 10, read-out: AUC0-24 hours Mean): 299 ng·h/mL
AUC(0-t) ([1]; 4 mg, 4 mg BID, Day 10, read-out: AUC0-last non-zero Geometric mean): 278 ng·h/mL
AUC(0-t) ([1]; 4 mg, 4 mg BID, Day 10, read-out: AUC0-last non-zero Mean): 355 ng·h/mL
AUC(0-inf) ([1]; 4 mg, 4 mg BID, Day 10, read-out: AUC0-∞ Geometric mean): 282 ng·h/mL
AUC(0-inf) ([1]; 4 mg, 4 mg BID, Day 10, read-out: AUC0-∞ Mean): 359 ng·h/mL
AUC ([1]; 4 mg, 4 mg BID, Day 10, read-out: AUCover dosing interval Geometric mean): 194 ng·h/mL
AUC ([1]; 4 mg, 4 mg BID, Day 10, read-out: AUCover dosing interval Mean): 237 ng·h/mL
Cmax ([1]; 4 mg, 4 mg BID, Day 10, read-out: Cmax Geometric mean): 26.8 ng/mL
Cmax ([1]; 4 mg, 4 mg BID, Day 10, read-out: Cmax Mean): 31.5 ng/mL
AUC0-12h ([1]; 8 mg, 8 mg BID, Day 10, read-out: AUC0-12 hours Geometric mean): 418 ng·h/mL
AUC0-12h ([1]; 8 mg, 8 mg BID, Day 10, read-out: AUC0-12 hours Mean): 458 ng·h/mL
AUC(0-t) ([1]; 8 mg, 8 mg BID, Day 10, read-out: AUC0-24 hours Geometric mean): 545 ng·h/mL
AUC(0-t) ([1]; 8 mg, 8 mg BID, Day 10, read-out: AUC0-24 hours Mean): 612 ng·h/mL
AUC(0-t) ([1]; 8 mg, 8 mg BID, Day 10, read-out: AUC0-last non-zero Geometric mean): 662 ng·h/mL
AUC(0-t) ([1]; 8 mg, 8 mg BID, Day 10, read-out: AUC0-last non-zero Mean): 745 ng·h/mL
AUC(0-inf) ([1]; 8 mg, 8 mg BID, Day 10, read-out: AUC0-∞ Geometric mean): 664 ng·h/mL
AUC(0-inf) ([1]; 8 mg, 8 mg BID, Day 10, read-out: AUC0-∞ Mean): 747 ng·h/mL
AUC ([1]; 8 mg, 8 mg BID, Day 10, read-out: AUCover dosing interval Geometric mean): 418 ng·h/mL
AUC ([1]; 8 mg, 8 mg BID, Day 10, read-out: AUCover dosing interval Mean): 458 ng·h/mL
Cmax ([1]; 8 mg, 8 mg BID, Day 10, read-out: Cmax Geometric mean): 57.7 ng/mL
Cmax ([1]; 8 mg, 8 mg BID, Day 10, read-out: Cmax Mean): 60.4 ng/mL
MoS versus inhalation toxicology study NOAELs, Lung exposure (mg/g lung) [2, 3]: 50
MoS versus inhalation toxicology study NOAELs, Plasma (group mean AUC0-24) [2, 3]: 3.2
Group mean AUC0-24 MoS (Phase 1 clinical study versus inhalation tox study NOAELs) ([2]; 4.0 mg BID vs 13-wk NHP NOAEL): 3.2
Lung dose of Compound I (mg/g) MoS ([2]; 4.0 mg BID vs 13-wk NHP NOAEL, adjusted for respirability assuming 10%, 25% and 100% lung deposition in rat, NHP and human): 50
